Measured values published in ChEMBL document CHEMBL3886673, “Tetracyclic CDK9 kinase inhibitors” (2016).

Target: Cyclin-dependent kinase 9 (Homo sapiens, UniProt P50750)
Experiment: LANCE ULight TR-FRET Kinase Assay : CDK9 enzyme activities were measured using LANCE ULight TR-FRET kinase assay reagents (PerkinElmer, Waltham, Mass.). Compounds were diluted in 100% DMSO then diluted with 1:10 in serine/threonine kinase assay buffer containing 20 mM HEPES, 10 mM MgCl2, 100 mM Na3VO4, and 0.0075% Triton X-100. Equal volume of the compound dilutions was added to a final reaction mixture containing LANCE detection buffer (PerkinElmer CR97-100), 100 nM ULight MBP (PerkinElmer TRF0109M), 1000 μM ATP, and CDK9/Cyclin T1 (Carna Biosciences 04-110). The kinase reaction was carried out for 1 hour before addition of stopping buffer to a final of 20 mM EDTA and 0.5 nM of LANCE Ultra Europium anti-phospho-MBP antibody (PerkinElmer TRF0201M) in LANCE detection buffer. The reaction was incubated for 1 hour and the signal was read in Envision in TR-FRET mode (excitation at 320 nm and emission at 615/665 nm).

Cyclin-dependent kinase 9, sequence (P50750 whole entry): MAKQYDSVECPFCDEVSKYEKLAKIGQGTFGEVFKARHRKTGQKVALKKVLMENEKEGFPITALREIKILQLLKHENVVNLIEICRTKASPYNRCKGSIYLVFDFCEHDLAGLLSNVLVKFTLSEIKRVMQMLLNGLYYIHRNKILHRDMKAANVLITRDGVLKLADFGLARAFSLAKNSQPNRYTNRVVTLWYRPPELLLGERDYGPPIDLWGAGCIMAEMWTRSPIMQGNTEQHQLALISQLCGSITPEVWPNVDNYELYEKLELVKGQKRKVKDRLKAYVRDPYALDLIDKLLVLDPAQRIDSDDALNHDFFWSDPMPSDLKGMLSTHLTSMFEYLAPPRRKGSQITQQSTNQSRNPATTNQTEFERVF

| IC50 [nM] | Structure (SMILES) |
| --- | --- |
| 30 | CNC(=O)N1CC=C(c2[nH]c3nccc4c3c2CN(C)c2ccc(F)cc2-4)CC1 |
| 38 | CN1Cc2c(C3=CCN(S(C)(=O)=O)CC3)[nH]c3ncc(F)c(c23)-c2cc(F)ccc21 |
| 230 | CN1Cc2c(C3=CCN(C(=O)OC(C)(C)C)CC3)[nH]c3nccc(c23)-c2cc(F)ccc21 |

| Structure (SMILES) | IC50 [nM] |
| --- | --- |
| CN(CCO)C(=O)CN1CC=C(c2[nH]c3ncc(F)c4c3c2CN(C)c2ccc(F)cc2-4)CC1 | 100 |
